# Experiments:
# hEAG2 = molecular target: T1, hEAG2 (Homo sapiens, UniProt Q8NCM2); test: Whole cell electrophysiology of hEAG2 and GFP cotransfected CHO cells; assay type: cell-based
# T1 construct: The complete open reading frame of HEAG2 cDNA was cloned into an Invitrogen native expression Gateway entry vector; expressed in transfected cells; host or cells: CHO cells, transient co-transfection with GFP DNA (Lipofectamine Plus)
# T1 sequence (Q8NCM2 1-988): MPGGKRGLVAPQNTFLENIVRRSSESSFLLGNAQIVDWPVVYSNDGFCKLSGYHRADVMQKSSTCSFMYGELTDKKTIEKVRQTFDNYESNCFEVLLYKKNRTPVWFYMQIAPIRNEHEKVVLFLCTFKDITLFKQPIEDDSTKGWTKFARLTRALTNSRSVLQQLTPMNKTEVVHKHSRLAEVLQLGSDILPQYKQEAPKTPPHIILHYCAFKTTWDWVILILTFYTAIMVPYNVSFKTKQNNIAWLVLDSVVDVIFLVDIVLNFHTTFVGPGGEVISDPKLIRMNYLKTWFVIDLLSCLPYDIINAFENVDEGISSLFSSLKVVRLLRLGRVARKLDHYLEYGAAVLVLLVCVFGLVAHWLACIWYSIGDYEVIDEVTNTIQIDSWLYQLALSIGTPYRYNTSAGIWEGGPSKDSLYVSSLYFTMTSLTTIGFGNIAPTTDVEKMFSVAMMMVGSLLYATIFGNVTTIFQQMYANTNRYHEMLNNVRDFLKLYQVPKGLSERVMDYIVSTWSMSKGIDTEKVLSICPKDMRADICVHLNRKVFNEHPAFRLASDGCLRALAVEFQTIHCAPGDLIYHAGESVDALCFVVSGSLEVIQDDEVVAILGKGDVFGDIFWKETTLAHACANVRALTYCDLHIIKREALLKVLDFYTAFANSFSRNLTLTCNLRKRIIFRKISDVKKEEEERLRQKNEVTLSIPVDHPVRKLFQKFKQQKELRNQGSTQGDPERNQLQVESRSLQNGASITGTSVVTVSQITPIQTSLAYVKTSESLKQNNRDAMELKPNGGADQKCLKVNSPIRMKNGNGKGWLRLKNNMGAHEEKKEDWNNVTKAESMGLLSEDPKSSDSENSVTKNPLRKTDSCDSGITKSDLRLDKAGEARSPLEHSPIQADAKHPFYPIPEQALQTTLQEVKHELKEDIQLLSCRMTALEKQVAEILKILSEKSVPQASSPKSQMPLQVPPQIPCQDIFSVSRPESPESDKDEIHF
# Experimental: CHO cells were plated in growth medium at 10% (1.2×10^5 cells/dish) and 20% (2.4×10^5 cells/dish) confluence in poly-lysine coated 35 mm dishes. After 24 hours, the growth medium was removed, and cells were rinsed with Optimem (Invitrogen # 31985-070), then refed 0.8 ml Optimem. Cells were transiently co-transfected with 0.5 ug hEAG2 DNA in the pDEST vector, and 0.5 ug of GFP DNA using Lipofectamine Plus (Invitrogen # 10964-013). Three hours post transfection, the transfection mix was removed, and cells were refed with 2 ml growth medium. Twenty four hours post transfection, cells were again refed 2 ml fresh growth medium. Cells were used in experiments 24-72 hrs post transfection. Control experiments were performed in CHO cells transiently transfected with 1 μg of GFP DNA. CHO growth medium is Iscove's medium (Invitrogen #12440)+10% FBS, 1× non-essential amino acids(Invitrogen #12383-014) and 1× HT Supplement (Invitrogen #11067-030). All chemicals were purchased from Sigma Chemicals, St. Louis Mo. The internal solution contained (in mM): KCl 130, MgCl2 1, CaCl2 1, HEPES 10, EGTA 10, and was titrated to a pH of 7.2. […] The bath solution contained (in mM) NaCl 140, KCl 4, MgCl2 1, CaCl2 1.8, HEPES 10, Glucose 10, and was titrated to a pH of 7.4. For some experiments the bath solution was modified by the addition of 1 or 5 mM BaCl2, by changing the concentration of MgCl2 to 0 or 10 mM or by reducing NaCl to 104 mM and increasing KCl to 40 mM. During data recording, cells were constantly superfused with bath solution delivered through a fused silica perfusion tip, internal diameter […]. Solution changes were accomplished through the use of a […]16 multichannel perfusion system from AutoMate Scientific, San Francisco Calif. Currents were recorded on an EPC-9 amplifier (HEKA Electronik, Lambrecht/Pfalz, Germany), controlled through the Pulse software package. Currents were sampled at 10 kHz and filtered at 3.3 kHz. Pipettes were constructed from thin walled borosilicate capillary tubing (Warner Instruments Corp., Hamden Conn.), and pulled to a resistance of 1.5-3 MΩ on a P-97 micropipette puller (Sutter Instrument Co., Novato Calif.). All experiments were conducted at 20° C. Following the establishment of a Gigaohm seal and whole cell access, cells were held at -80 mV. […] All stimulation protocols were applied at 0.1 Hz.
# Eag proteins = conditions: intracellular Ca++; read-out: half-maximal inhibition concentration; cited from earlier work
# [1] = picogram quantities, female recipients; cited from earlier work
# Human lung fibroblasts = test: Human lung fibroblast proliferation assay (Alamar Blue); assay type: cell-based; conditions: 3 days in basal medium
# Experimental: Human lung fibroblasts are obtained from Clonetics (San Diego, Calif.) and maintained in growth media from Clonetics. Dermal microvascular endothelial cells are obtained from Cell Applications (San Diego, Calif.). For proliferation assays, the human lung fibroblasts and dermal microvascular endothelial cells can be cultured at 5,000 cells/well in a 96-well plate for one day in growth medium. The cells are then incubated for one day in 0.1% BSA basal medium. After replacing the medium with fresh 0.1% BSA medium, the cells are incubated with the test proteins for 3 days. Alamar Blue (Alamar Biosciences, Sacramento, Calif.) is added to each well to a final concentration of 10%. The cells are incubated for 4 hr. Cell viability is measured by reading in a CytoFluor fluorescence reader. For the PGE2 assays, the human lung fibroblasts are cultured at 5,000 cells/well in a 96-well plate for one day. […]
# [2] = system: nigral dopaminergic neurons; conditions: gel foam implants in the striatum; cited from earlier work
compound,measurement,setting,value
"[Ba+2].[Cl-].[Cl-] [Ba^++, BaCl2]",steady state current,"hEAG2; addition of Ba^++ to the extracellular solution (bath + 1 or 5 mM BaCl2), depolarization to +40 mV for 1 sec, 20° C",apparent reduction
[Ca+2] [Ca++],IC50,Eag proteins,~100 nM
"[K+] [K^+, KCl]",tail reversal potential,"hEAG2; increased extracellular K^+ (KCl 40 mM, NaCl 104 mM)",approximately −40 mV
"[Mg+2] [Mg^++, MgCl2]",activation rate of the current,hEAG2; Mg^++ free bath (MgCl2 0 mM),much faster
same,activation rate of the current,hEAG2; increased bath Mg^++ (MgCl2 10 mM),dramatically slowed
C[C@@]12C=CC[C@H]1[C@@H]1CCC3=CC(=O)CC[C@]3(C)[C@H]1CC2 [androstadienone],"nervousness, tension and other negative feelings",[1],significant reduction
"FGF-2: Fibroblast growth factor 2 (basic FGF), comparator protein for the polypeptides of the invention","stimulation of growth of human lung fibroblasts, concentration showing stimulation",Human lung fibroblasts,10 to 2500 ng/mL
same,protection of nigral dopaminergic neurons from toxicity associated with MPTP exposure,[2],near complete protection
